Laboratory results as given in US5641780A, “Pyrrolo-indole derivatives” (priority 1994, dated 1997).

Test system: Sarcoma 180 tumor
Test: Therapeutic Effect on Sarcoma 180 Tumor
Type: in vivo, male ddY-strain mice
Conditions: Mus musculus, Sarcoma-180, 168 h; dose 1.0 mg/kg, intravenous, one day after implantation; determined seven days after implantation; read-out: T/C (average tumor volume treated / control)
Protocol: Five male ddY-strain mice each weighing 18-20 g were used for each group as test animals, and 5×10^5 Sarcoma 180 tumor cells were implantedat the axilla subcutaneously. One day after the implantation, 0.2 ml of a physiological saline containing Compound (I) at the concentration shown in Table 3 was intravenously administered to each mouse. T/C [T: average tumor volume (mm^3) of the group treated with the test compound, C: average tumor volume (mm^3) of the control group (to which 0.2 ml of a physiological saline was intravenously administered)] was determined seven days after the implantation.

Compound | response vs control in vivo at 1 mg/kg
COC(=O)c1c(C)[nH]c2c(OC(=O)SC)cc3c(c12)C(CBr)CN3C(=O)/C=C/c1ccc(OC)cc1 (stereo not shown) [Compound 15] | 36%

Same assay, conditions: Mus musculus, Sarcoma-180, 168 h; dose 2.0 mg/kg, intravenous, one day after implantation; determined seven days after implantation; read-out: T/C (average tumor volume treated / control)

Compound | response vs control in vivo at 2 mg/kg
COC(=O)c1c(C)[nH]c2c(OC(=O)c3cccnc3)cc3c(c12)C(CBr)CN3C(=O)/C=C/c1ccc(OC)cc1 (stereo not shown) [Compound 16] | 33%
COC(=O)c1c(C)[nH]c2c(OC(=O)c3cccc(N(C)C)c3)cc3c(c12)C(CBr)CN3C(=O)/C=C/c1ccc(OC)cc1 (stereo not shown) [Compound 24] | 31%
COC(=O)c1c(C)[nH]c2c(OC(=O)NN(C)C)cc3c(c12)C(CBr)CN3C(=O)/C=C/c1ccc(OC)cc1 (stereo not shown) [Compound 29] | 18%
COC(=O)c1c(C)[nH]c2c(OC(=O)c3ccc(CNC(=O)OC(C)(C)C)cc3)cc3c(c12)C(CBr)CN3C(=O)/C=C/c1ccc(OC)cc1 (stereo not shown) [Compound 34] | 28%

Same assay, conditions: Mus musculus, Sarcoma-180, 168 h; dose 4.0 mg/kg, intravenous, one day after implantation; determined seven days after implantation; read-out: T/C (average tumor volume treated / control)

Compound | response vs control in vivo at 4 mg/kg
COC(=O)c1c(C)[nH]c2c(OC(=O)NCC(=O)O)cc3c(c12)C(CBr)CN3C(=O)c1cc2cc(OC)c(OC)c(OC)c2[nH]1 (stereo not shown) [Compound 10] | 10%
COC(=O)c1c(C)[nH]c2c(OC(=O)NC(Cc3ccccc3)C(=O)O)cc3c(c12)C(CBr)CN3C(=O)c1cc2cc(OC)c(OC)c(OC)c2[nH]1 (stereo not shown) [Compound 11] | 7%
COC(=O)c1c(C)[nH]c2c(OC(=O)c3ccc(CN)cc3)cc3c(c12)C(CBr)CN3C(=O)/C=C/c1ccc(OC)cc1 (stereo not shown) [Compound 36] | 35%

Same assay, conditions: Mus musculus, Sarcoma-180, 168 h; dose 8.0 mg/kg, intravenous, one day after implantation; determined seven days after implantation; read-out: T/C (average tumor volume treated / control)

Compound | response vs control in vivo at 8 mg/kg
COC(=O)c1c(C)[nH]c2c(OCc3ccccc3)cc3c(c12)C(CBr)CN3C(=O)c1cc2cc(OC)c(OC)c(OC)c2[nH]1 (stereo not shown) [Compound 1] | 19%
COC(=O)c1c(C)[nH]c2c(OC)cc3c(c12)C(CBr)CN3C(=O)c1cc2cc(OC)c(OC)c(OC)c2[nH]1 (stereo not shown) [Compound 2] | 27%

Same assay, conditions: Mus musculus, Sarcoma-180, 168 h; dose 16 mg/kg, intravenous, one day after implantation; determined seven days after implantation; read-out: T/C (average tumor volume treated / control)

Compound | response vs control in vivo at 16 mg/kg
COC(=O)c1c(C)[nH]c2c(OS(C)(=O)=O)cc3c(c12)C(CBr)CN3C(=O)c1cc2cc(OC)c(OC)c(OC)c2[nH]1 (stereo not shown) [Compound 4] | 20%

Same assay, conditions: Mus musculus, Sarcoma-180, iv, 168 h, read-out: T/C (average tumor volume treated / control), dose 0.50 mg/kg, intravenous, one day after implantation; determined seven days after implantation

Compound | response vs control in vivo at 0.5 mg/kg
COC(=O)c1c(C)[nH]c2c(OC(C)=O)cc3c(c12)C(CBr)CN3C(=O)c1cc2cc(OC)c(OC)c(OC)c2[nH]1 (stereo not shown) [Compound 6] | 18%
COC(=O)Oc1cc2c(c3c(C(=O)OC)c(C)[nH]c13)C(CBr)CN2C(=O)c1cc2cc(OC)c(OC)c(OC)c2[nH]1 (stereo not shown) [Compound 7] | 10%
COC(=O)c1c(C)[nH]c2c(OC(=O)Oc3ccccc3)cc3c(c12)C(CBr)CN3C(=O)c1cc2cc(OC)c(OC)c(OC)c2[nH]1 (stereo not shown) [Compound 8] | 9%

Same assay, conditions: Mus musculus, Sarcoma-180, iv, 168 h, read-out: T/C (average tumor volume treated / control), dose 2.0 mg/kg, intravenous, one day after implantation; determined seven days after implantation

Compound | response vs control in vivo at 2 mg/kg
CCN(CC)c1ccc(C(=O)Oc2cc3c(c4c(C(=O)OC)c(C)[nH]c24)C(CBr)CN3C(=O)/C=C/c2ccc(OC)cc2)cc1 (stereo not shown) [Compound 25] | 14%
COC(=O)c1c(C)[nH]c2c(OC(=O)c3ccc(-n4cccc4)cc3)cc3c(c12)C(CBr)CN3C(=O)/C=C/c1ccc(OC)cc1 (stereo not shown) [Compound 26] | 15%

Test system: HeLaS3 cells
Test: Growth Inhibitory Effect Against HeLaS3 cells
Type: cell-based
Conditions: Homo sapiens, HeLa S3, 72 h, read-out: IC50, growth inhibition of HeLaS3 cells, 72 hours, 37° C., cell counter
Protocol: HeLaS3 cells were suspended in MEM medium containing 10% fetal calf serum and 2 mM glutamine to a concentration of 2.67×10^4 cells/ml. The cell suspension thus prepared was put into wells of a 24-well culture plate in an amount of 0.75 ml per well. After the cells were incubated in a CO2 incubator overnight at 37° C., Compound (I) which had been appropriately diluted with a culture medium was added to each well in an amount of 0.25 ml.
The cells were further incubated in the CO2 incubator for 72 hours, and the culture supernatant was removed. Then, the cells were dispersed in a solution of trypsin and EDTA, and recovered. The number of the cells was counted using a cell counter. The concentration of Compound (I) at which the growth of the cells is inhibited by 50% was calculated by comparing the number of untreated cells with the number of the cells treated with Compound (I) at known concentrations, and the value was defined as IC50.

Compound | IC50
COC(=O)c1c(C)[nH]c2c(OC(C)=O)cc3c(c12)C(CBr)CN3C(=O)c1cc2cc(OC)c(OC)c(OC)c2[nH]1 (stereo not shown) [Compound 6] | 0.13 nM
COC(=O)Oc1cc2c(c3c(C(=O)OC)c(C)[nH]c13)C(CBr)CN2C(=O)c1cc2cc(OC)c(OC)c(OC)c2[nH]1 (stereo not shown) [Compound 7] | 0.082 nM
COC(=O)c1c(C)[nH]c2c(OC(=O)Oc3ccccc3)cc3c(c12)C(CBr)CN3C(=O)c1cc2cc(OC)c(OC)c(OC)c2[nH]1 (stereo not shown) [Compound 8] | 0.051 nM
CCN(CC)c1ccc(C(=O)Oc2cc3c(c4c(C(=O)OC)c(C)[nH]c24)C(CBr)CN3C(=O)/C=C/c2ccc(OC)cc2)cc1 (stereo not shown) [Compound 25] | 13 nM
COC(=O)c1c(C)[nH]c2c(OC(=O)c3ccc(-n4cccc4)cc3)cc3c(c12)C(CBr)CN3C(=O)/C=C/c1ccc(OC)cc1 (stereo not shown) [Compound 26] | 1.7 nM

Same assay, conditions: Homo sapiens, HeLa S3; 72 hours, 37° C., cell counter; read-out: IC50, growth inhibition of HeLaS3 cells

Compound | IC50
COC(=O)c1c(C)[nH]c2c(OCc3ccccc3)cc3c(c12)C(CBr)CN3C(=O)c1cc2cc(OC)c(OC)c(OC)c2[nH]1 (stereo not shown) [Compound 1] | 5.1 nM
COC(=O)c1c(C)[nH]c2c(OC)cc3c(c12)C(CBr)CN3C(=O)c1cc2cc(OC)c(OC)c(OC)c2[nH]1 (stereo not shown) [Compound 2] | 6.3 nM
COC(=O)c1c(C)[nH]c2c(OS(C)(=O)=O)cc3c(c12)C(CBr)CN3C(=O)c1cc2cc(OC)c(OC)c(OC)c2[nH]1 (stereo not shown) [Compound 4] | 4 nM
COC(=O)c1c(C)[nH]c2c(OC(=O)NCC(=O)O)cc3c(c12)C(CBr)CN3C(=O)c1cc2cc(OC)c(OC)c(OC)c2[nH]1 (stereo not shown) [Compound 10] | 0.23 nM
COC(=O)c1c(C)[nH]c2c(OC(=O)NC(Cc3ccccc3)C(=O)O)cc3c(c12)C(CBr)CN3C(=O)c1cc2cc(OC)c(OC)c(OC)c2[nH]1 (stereo not shown) [Compound 11] | 0.17 nM
COC(=O)c1c(C)[nH]c2c(OC(=O)SC)cc3c(c12)C(CBr)CN3C(=O)/C=C/c1ccc(OC)cc1 (stereo not shown) [Compound 15] | 0.43 nM
COC(=O)c1c(C)[nH]c2c(OC(=O)c3cccnc3)cc3c(c12)C(CBr)CN3C(=O)/C=C/c1ccc(OC)cc1 (stereo not shown) [Compound 16] | 0.4 nM
COC(=O)c1c(C)[nH]c2c(OC(=O)c3cccc(N(C)C)c3)cc3c(c12)C(CBr)CN3C(=O)/C=C/c1ccc(OC)cc1 (stereo not shown) [Compound 24] | 0.43 nM
COC(=O)c1c(C)[nH]c2c(OC(=O)NN(C)C)cc3c(c12)C(CBr)CN3C(=O)/C=C/c1ccc(OC)cc1 (stereo not shown) [Compound 29] | 0.43 nM
COC(=O)c1c(C)[nH]c2c(OC(=O)c3ccc(CNC(=O)OC(C)(C)C)cc3)cc3c(c12)C(CBr)CN3C(=O)/C=C/c1ccc(OC)cc1 (stereo not shown) [Compound 34] | 0.52 nM
COC(=O)c1c(C)[nH]c2c(OC(=O)c3ccc(CN)cc3)cc3c(c12)C(CBr)CN3C(=O)/C=C/c1ccc(OC)cc1 (stereo not shown) [Compound 36] | 1 nM

Test system: ddY-strain male mice
Test: Acute toxicity (minimum lethal dose)
Type: in vivo
Conditions: intravenous, mortality at 14 days after administration
Protocol: Compound (I) was intravenously administered to ddY-strain male mice each weighing 20±1 g. MLD (minimum lethal dose) was determined by observing the mortality at 14 days after administration.

Compound | MLD (minimum lethal dose)
COC(=O)c1c(C)[nH]c2c(OC(C)=O)cc3c(c12)C(CBr)CN3C(=O)c1cc2cc(OC)c(OC)c(OC)c2[nH]1 (stereo not shown) [Compound 6] | 0.25 mg/kg
COC(=O)Oc1cc2c(c3c(C(=O)OC)c(C)[nH]c13)C(CBr)CN2C(=O)c1cc2cc(OC)c(OC)c(OC)c2[nH]1 (stereo not shown) [Compound 7] | 0.50 mg/kg
COC(=O)c1c(C)[nH]c2c(OC(=O)Oc3ccccc3)cc3c(c12)C(CBr)CN3C(=O)c1cc2cc(OC)c(OC)c(OC)c2[nH]1 (stereo not shown) [Compound 8] | 0.50 mg/kg
COC(=O)c1c(C)[nH]c2c(OC(=O)NCC(=O)O)cc3c(c12)C(CBr)CN3C(=O)c1cc2cc(OC)c(OC)c(OC)c2[nH]1 (stereo not shown) [Compound 10] | > 4.0 mg/kg
COC(=O)c1c(C)[nH]c2c(OC(=O)NC(Cc3ccccc3)C(=O)O)cc3c(c12)C(CBr)CN3C(=O)c1cc2cc(OC)c(OC)c(OC)c2[nH]1 (stereo not shown) [Compound 11] | > 4.0 mg/kg
CCN(CC)c1ccc(C(=O)Oc2cc3c(c4c(C(=O)OC)c(C)[nH]c24)C(CBr)CN3C(=O)/C=C/c2ccc(OC)cc2)cc1 (stereo not shown) [Compound 25] | 2.0 mg/kg
COC(=O)c1c(C)[nH]c2c(OC(=O)c3ccc(-n4cccc4)cc3)cc3c(c12)C(CBr)CN3C(=O)/C=C/c1ccc(OC)cc1 (stereo not shown) [Compound 26] | 2.0 mg/kg
COC(=O)c1c(C)[nH]c2c(OC(=O)NN(C)C)cc3c(c12)C(CBr)CN3C(=O)/C=C/c1ccc(OC)cc1 (stereo not shown) [Compound 29] | 2.0 mg/kg
